From the supplement of paper PMC10307832

Key:
Test in all cases: relative viability (nuclei count vs DMSO), 5 days (fraction); higher = more cells survive
[1] = compound: C1=CC2=NC=CN=C2C=C1/C=C/3\C(=O)NC(=O)S3 + COc1cccc2cc(-c3nc([C@H]4CC[C@H](C(=O)O)CC4)n4ncnc(N)c34)[nH]c12 [OSI-027] (partner 0.5 µM)
How it was run: (§1)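 Lung cancer cell lines, seeded in 1536-well plates, were treated the following day by pin tool with a single drug or with five library-drug doses (not always all listed) in √10 steps on top of a fixed anchor-drug dose. Cells were fixed and nuclei stained in one step after 5 days, and nuclei were counted. Relative viability is the nuclei count for treated wells divided by that for vehicle wells, reported as medians of duplicate plates.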

[2] = compound: C1=CC2=NC=CN=C2C=C1/C=C/3\C(=O)NC(=O)S3 + O=C(CCCCCCC(=O)Nc1ccccc1)NO [Vorinostat] (partner 1 µM)
How it was run: as §1

BGJ398 + Navitoclax = compound: CCN1CCN(c2ccc(Nc3cc(N(C)C(=O)Nc4c(Cl)c(OC)cc(OC)c4Cl)ncn3)cc2)CC1 [BGJ398] + CC1(C)CCC(c2ccc(Cl)cc2)=C(CN2CCN(c3ccc(C(=O)NS(=O)(=O)c4ccc(N[C@H](CCN5CCOCC5)CSc5ccccc5)c(S(=O)(=O)C(F)(F)F)c4)cc3)CC2)C1 [Navitoclax] (partner 0.5 µM)
How it was run: as §1

BGJ398 + Linsitinib = compound: CCN1CCN(c2ccc(Nc3cc(N(C)C(=O)Nc4c(Cl)c(OC)cc(OC)c4Cl)ncn3)cc2)CC1 [BGJ398] + C[C@]1(O)C[C@@H](c2nc(-c3ccc4ccc(-c5ccccc5)nc4c3)c3c(N)nccn32)C1 [Linsitinib] (partner 1 µM)
How it was run: as §1

Cell Line | relative viability ([1]; first compound 0.02 µM) | relative viability ([1]; first compound 0.06325 µM) | relative viability ([1]; first compound 0.2 µM) | relative viability ([1]; first compound 0.6325 µM) | relative viability ([1]; first compound 2 µM) | relative viability ([2]; first compound 0.02 µM) | relative viability ([2]; first compound 0.06325 µM) | relative viability ([2]; first compound 0.2 µM) | relative viability ([2]; first compound 0.6325 µM) | relative viability ([2]; first compound 2 µM) | relative viability (BGJ398 + Navitoclax; first compound 0.01 µM) | relative viability (BGJ398 + Navitoclax; first compound 0.03162 µM) | relative viability (BGJ398 + Navitoclax; first compound 0.1 µM) | relative viability (BGJ398 + Navitoclax; first compound 0.3162 µM) | relative viability (BGJ398 + Navitoclax; first compound 1 µM) | relative viability (BGJ398 + Linsitinib; first compound 0.01 µM) | relative viability (BGJ398 + Linsitinib; first compound 0.03162 µM) | relative viability (BGJ398 + Linsitinib; first compound 0.1 µM) | relative viability (BGJ398 + Linsitinib; first compound 0.3162 µM) | relative viability (BGJ398 + Linsitinib; first compound 1 µM)
NCI-H1651 | 0.711 | 0.723 | 0.794 | 0.658 | 0.527 | 0.504 | 0.502 | 0.6 | 0.588 | 0.483 | 0.988 | 1.18 | 0.978 | 0.961 | 0.991 | 0.874 | 0.938 | 1.05 | 1.04 | 0.895
NCI-H1666 | 0.873 | 0.825 | 0.84 | 0.812 | 0.459 | 0.912 | 0.927 | 0.968 | 0.984 | 0.785 | 0.949 | 1.01 | 0.91 | 0.967 | 0.842 | 0.708 | 0.812 | 0.816 | 0.835 | 0.709
NCI-H1734 | 0.697 | 0.487 | 0.665 | 0.522 | 0.324 | 0.846 |  | 0.907 | 0.767 | 0.556 | 0.836 | 0.878 | 0.81 | 0.832 | 0.826 | 0.816 | 0.873 | 0.907 | 0.864 | 0.917
NCI-H1755 | 0.712 | 0.838 | 0.71 | 0.699 | 0.575 | 0.681 | 0.695 | 0.832 | 0.858 | 0.818 | 0.984 | 1.04 | 0.986 | 0.968 | 1.07 | 0.93 | 1.01 | 0.983 | 0.955 | 1.01
NCI-H1793 | 0.28 | 0.201 | 0.289 | 0.265 | 0.203 | 0.635 | 0.616 | 0.765 | 0.676 | 0.679 | 0.417 |  | 0.391 | 0.251 | 0.326 | 0.804 |  | 0.833 | 0.71 | 0.756
NCI-H1915 | 0.679 | 0.71 | 0.727 | 0.674 | 0.603 | 0.578 | 0.525 | 0.636 | 0.468 | 0.499 | 0.73 | 0.786 | 0.774 | 0.77 | 0.766 | 1.05 | 1.04 | 1.12 | 1.19 | 1.13
NCI-H1944 | 0.412 | 0.395 | 0.427 | 0.385 | 0.258 | 0.515 | 0.511 | 0.551 | 0.536 | 0.512 | 0.986 | 1.05 | 1.08 | 0.884 | 1.05 | 1.17 | 1.22 | 1.28 | 1.2 | 1.28
NCI-H1975 | 0.708 | 0.805 | 0.808 | 0.619 | 0.417 | 0.683 | 0.734 | 0.735 | 0.731 | 0.674 | 1.11 | 1.09 | 1.12 | 1.19 | 1.05 | 1.08 | 1.07 | 1.11 | 1.03 | 0.965
